Laboratory results published in patent US20230265151A1, “GIP/GLP1 CO-AGONIST COMPOUNDS” (priority 2020, published 2023).
Where two headings read alike, the source gives them in different places.

What was measured:
Type in all cases: cell-based
hGIPR = target: T1, hGIPR (Homo sapiens, UniProt P48546); assay: Functional cAMP formation (HTRF) in HEK-293 clonal cells expressing hGIPR, 0.1% bovine casein, without or with 1.0% human serum albumin; conditions: for EC50: geometric mean
T1 construct: expressed in transfected cells
T1 sequence (P48546 22-466): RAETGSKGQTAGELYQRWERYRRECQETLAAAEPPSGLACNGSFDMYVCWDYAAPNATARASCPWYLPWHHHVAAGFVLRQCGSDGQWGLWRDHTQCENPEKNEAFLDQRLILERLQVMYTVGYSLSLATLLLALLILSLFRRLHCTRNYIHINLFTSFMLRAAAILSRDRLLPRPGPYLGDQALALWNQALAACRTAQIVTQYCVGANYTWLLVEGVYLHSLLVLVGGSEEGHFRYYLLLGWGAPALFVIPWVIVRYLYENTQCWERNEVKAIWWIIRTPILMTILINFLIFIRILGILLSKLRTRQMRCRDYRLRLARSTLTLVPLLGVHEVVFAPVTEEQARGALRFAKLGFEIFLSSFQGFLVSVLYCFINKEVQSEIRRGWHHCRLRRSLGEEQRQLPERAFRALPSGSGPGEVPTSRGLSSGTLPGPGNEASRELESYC
How it was run: (§1)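 Readings of the HTRF 665/620 nm ratio, which falls as cAMP rises, were converted to nM cAMP using a standard curve after 30 min peptide exposure at 37° C.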

hGLP-1R = hGLP-1R (Homo sapiens, UniProt P43220); assay: Functional cAMP formation (HTRF) in HEK-293 clonal cells expressing hGLP-1R, 0.1% bovine casein, without or with 1.0% human serum albumin; design: expressed in transfected cells; conditions: for Emax: percent of maximal response to GLP-1(7-36)NH2; for EC50: geometric mean
Sequence of hGLP-1R (P43220 24-463): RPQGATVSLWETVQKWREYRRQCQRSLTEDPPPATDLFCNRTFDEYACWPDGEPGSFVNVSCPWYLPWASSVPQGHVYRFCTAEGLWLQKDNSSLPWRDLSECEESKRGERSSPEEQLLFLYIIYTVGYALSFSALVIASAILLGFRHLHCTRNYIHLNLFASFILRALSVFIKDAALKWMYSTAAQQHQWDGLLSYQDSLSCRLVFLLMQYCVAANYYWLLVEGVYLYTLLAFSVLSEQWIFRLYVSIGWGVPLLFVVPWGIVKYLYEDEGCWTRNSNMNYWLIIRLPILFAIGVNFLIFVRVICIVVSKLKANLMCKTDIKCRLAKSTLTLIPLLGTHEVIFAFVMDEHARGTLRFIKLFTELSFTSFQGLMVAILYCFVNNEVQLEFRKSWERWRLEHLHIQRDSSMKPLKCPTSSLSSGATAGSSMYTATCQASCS
How it was run: as §1

hGCGR = target: T2, hGCGR (Homo sapiens, UniProt P47871); assay: Functional cAMP formation (HTRF) in HEK-293 clonal cells expressing hGCGR, 0.1% bovine casein, without or with 1.0% human serum albumin; conditions: geometric mean
T2 construct: expressed in transfected cells
T2 sequence (P47871 26-477): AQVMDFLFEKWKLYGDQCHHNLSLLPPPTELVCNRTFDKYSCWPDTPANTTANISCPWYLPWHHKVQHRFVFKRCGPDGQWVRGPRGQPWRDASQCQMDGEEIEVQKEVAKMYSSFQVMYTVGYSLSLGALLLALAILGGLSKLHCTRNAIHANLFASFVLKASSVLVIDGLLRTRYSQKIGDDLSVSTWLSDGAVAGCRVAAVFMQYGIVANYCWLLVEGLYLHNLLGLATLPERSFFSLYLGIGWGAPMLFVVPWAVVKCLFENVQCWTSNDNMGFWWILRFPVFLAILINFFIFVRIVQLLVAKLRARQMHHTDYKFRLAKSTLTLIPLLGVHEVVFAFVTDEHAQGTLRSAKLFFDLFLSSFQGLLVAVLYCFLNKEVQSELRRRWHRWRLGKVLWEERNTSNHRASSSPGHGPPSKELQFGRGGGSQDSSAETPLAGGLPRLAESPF
How it was run: as §1

[1] = 0.1% bovine casein and 1.0% human serum albumin, 37° C., read-out: hGIPR EC50, nM (SEM, n)
[2] = HEK293, 0.1% bovine casein and 1.0% human serum albumin, 37° C., percent of maximal response to GIP(1-42)NH2, read-out: hGIPR Emax, % ± SEM
[3] = HEK293, percent of maximal response to GIP(1-42)NH2, 37° C., 0.1% bovine casein, arithmetic mean, read-out: hGIPR Emax, % ± SEM
[4] = cAMP, incubated at 37° C., 0.1% bovine casein (no human serum albumin), read-out: hGIPR EC50, nM (SEM, n)
[5] = 0.1% bovine casein and 1.0% human serum albumin, 37° C., read-out: hGLP-1R EC50, nM (SEM, n)
[6] = cAMP, incubated at 37° C., 0.1% bovine casein (no human serum albumin), read-out: hGLP-1R EC50, nM (SEM, n)
[7] = 0.1% bovine casein and 1.0% human serum albumin, 37° C., read-out: hGCGR EC50, nM (SEM, n)
[8] = cAMP, incubated at 37° C., 0.1% bovine casein (no human serum albumin), read-out: hGCGR EC50, nM (SEM, n)

Structure (SMILES) | Emax (hGIPR; HEK293, read-out: hGIPR Emax, % ± SEM, 0.1% bovine casein and 1.0% human serum albumin, 37° C., percent of maximal response to GIP(1-42)NH2) [%] | Emax (hGIPR; HEK293, read-out: hGIPR Emax, % ± SEM, percent of maximal response to GIP(1-42)NH2, 37° C., 0.1% bovine casein, arithmetic mean) [%] | EC50 (hGIPR; hGIPR EC50, nM (SEM, n), 0.1% bovine casein and 1.0% human serum albumin, 37° C.) [nM] | Emax (hGLP-1R; HEK293, read-out: hGLP-1R Emax, % ± SEM, 0.1% bovine casein and 1.0% human serum albumin, 37° C.) [%] | EC50 (hGLP-1R; hGLP-1R EC50, nM (SEM, n), 0.1% bovine casein and 1.0% human serum albumin, 37° C.) [nM] | EC50 (hGLP-1R; hGLP-1R EC50, nM (SEM, n), cAMP, incubated at 37° C., 0.1% bovine casein (no human serum albumin)) [nM] | EC50 (hGCGR; hGCGR EC50, nM (SEM, n), 0.1% bovine casein and 1.0% human serum albumin, 37° C.) [nM] | EC50 (hGCGR; hGCGR EC50, nM (SEM, n), cAMP, incubated at 37° C., 0.1% bovine casein (no human serum albumin)) [nM] | EC50 (hGIPR; [1]) [nM] | Emax (hGIPR; [2]) [%] | Emax (hGIPR; [3]) [%] | EC50 (hGIPR; [4]) [nM] | EC50 (hGLP-1R; [5]) [nM] | EC50 (hGLP-1R; [6]) [nM] | EC50 (hGCGR; [7]) [nM] | EC50 (hGCGR; [8]) [nM] | Emax (hGLP-1R; HEK293, 0.1% bovine casein and 1.0% human serum albumin, 37° C., read-out: hGLP-1R Emax, % ± SEM) [%]
CC[C@H](C)[C@H](NC(=O)[C@H](CCCN)NC(=O)[C@H](CC(=O)O)NC(=O)[C@H](CC(C)C)NC(=O)[C@](C)(CC(C)C)NC(=O)[C@@H](NC(=O)[C@H](CO)NC(=O)[C@H](Cc1ccncc1)NC(=O)[C@H](CC(=O)O)NC(=O)[C@H](CO)NC(=O)[C@@H](NC(=O)[C@](C)(Cc1ccccc1F)NC(=O)[C@@H](NC(=O)CNC(=O)[C@H](CCC(=O)O)NC(=O)C(C)(C)NC(=O)[C@@H](N)Cc1ccc(O)cc1)[C@@H](C)O)[C@@H](C)O)[C@@H](C)CC)C(=O)N[C@@H](C)C(=O)N[C@@H](CCC(N)=O)C(=O)NC(C)(C)C(=O)N[C@@H](CCC(=O)O)C(=O)N[C@@H](Cc1ccccc1)C(=O)N[C@H](C(=O)N[C@@H](CCCCNC(=O)COCCOCCNC(=O)COCCOCCNC(=O)CC[C@H](NC(=O)CCCCCCCCCCCCC(=O)O)C(=O)O)C(=O)N[C@@](C)(Cc1ccc(O)cc1)C(=O)N[C@@H](CC(C)C)C(=O)N[C@H](C(=O)N[C@@H](CCC(=O)O)C(=O)NCC(=O)NCC(=O)N1CCC[C@H]1C(=O)N[C@@H](CO)C(=O)N[C@@H](CO)C(=O)NCC(=O)N[C@@H](C)C(=O)N1CCC[C@H]1C(=O)N1CCC[C@H]1C(=O)N1CCC[C@H]1C(=O)N[C@@H](CO)C(=O)N[C@@H](CCCCNC(=O)COCCOCCNC(=O)COCCOCCNC(=O)CC[C@H](NC(=O)CCCCCCCCCCCCC(=O)O)C(=O)O)C(N)=O)[C@@H](C)CC)[C@@H](C)CC [Example 72] | 95.9 | 96.5 ± 3.71 | 3.55 | 98.8 | 40.1 | 0.245 | > 9950 | > 9950 | – | – | – | – | – | – | – | – | –
CC[C@H](C)[C@H](NC(=O)[C@H](CCCN)NC(=O)[C@H](CC(=O)O)NC(=O)[C@H](CC(C)C)NC(=O)[C@](C)(CC(C)C)NC(=O)[C@@H](NC(=O)[C@H](CO)NC(=O)[C@H](Cc1ccncc1)NC(=O)[C@H](CC(=O)O)NC(=O)[C@H](CO)NC(=O)[C@@H](NC(=O)[C@](C)(Cc1ccccc1F)NC(=O)[C@@H](NC(=O)CNC(=O)[C@H](CCC(=O)O)NC(=O)C(C)(C)NC(=O)[C@@H](N)Cc1ccc(O)cc1)[C@@H](C)O)[C@@H](C)O)[C@@H](C)CC)C(=O)N[C@@H](C)C(=O)N[C@@H](CCC(N)=O)C(=O)NC(C)(C)C(=O)N[C@@H](CCCCNC(=O)COCCOCCNC(=O)COCCOCCNC(=O)CC[C@H](NC(=O)CCCCCCCCCCCCC(=O)O)C(=O)O)C(=O)N[C@@H](Cc1ccccc1)C(=O)N[C@H](C(=O)N[C@H](CCC(=O)O)C(=O)N[C@@](C)(Cc1ccc(O)cc1)C(=O)N[C@@H](CC(C)C)C(=O)N[C@H](C(=O)N[C@@H](CCC(=O)O)C(=O)NCC(=O)NCC(=O)N[C@@H](CCCCNC(=O)COCCOCCNC(=O)COCCOCCNC(=O)CC[C@H](NC(=O)CCCCCCCCCCCCC(=O)O)C(=O)O)C(=O)N[C@@H](CO)C(=O)N[C@@H](CO)C(=O)NCC(=O)N[C@@H](C)C(=O)N1CCC[C@H]1C(=O)N1CCC[C@H]1C(=O)N1CCC[C@H]1C(=O)N[C@@H](CO)C(N)=O)[C@@H](C)CC)[C@@H](C)CC [Example 74] | – | – | – | – | – | – | – | – | 2.19 | 86.7 | 93.3 ± 2.89 | 0.0156 | 59.5 | 0.334 | > 9950 | > 9950 | –
CC[C@H](C)[C@H](NC(=O)[C@H](CCCN)NC(=O)[C@H](CC(=O)O)NC(=O)[C@H](CC(C)C)NC(=O)[C@](C)(CC(C)C)NC(=O)[C@@H](NC(=O)[C@H](CO)NC(=O)[C@H](Cc1ccncc1)NC(=O)[C@H](CC(=O)O)NC(=O)[C@H](CO)NC(=O)[C@@H](NC(=O)[C@](C)(Cc1ccccc1F)NC(=O)[C@@H](NC(=O)CNC(=O)[C@H](CCC(=O)O)NC(=O)C(C)(C)NC(=O)[C@@H](N)Cc1ccc(O)cc1)[C@@H](C)O)[C@@H](C)O)[C@@H](C)CC)C(=O)N[C@@H](C)C(=O)N[C@@H](CCC(N)=O)C(=O)NC(C)(C)C(=O)N[C@@H](CCCCNC(=O)COCCOCCNC(=O)COCCOCCNC(=O)CC[C@H](NC(=O)CCCCCCCCCCCCC(=O)O)C(=O)O)C(=O)N[C@@H](Cc1ccccc1)C(=O)N[C@H](C(=O)N[C@H](CCC(=O)O)C(=O)N[C@@](C)(Cc1ccc(O)cc1)C(=O)N[C@@H](CC(C)C)C(=O)N[C@H](C(=O)N[C@@H](CCC(=O)O)C(=O)NCC(=O)NCC(=O)N1CCC[C@H]1C(=O)N[C@@H](CO)C(=O)N[C@@H](CO)C(=O)NCC(=O)N[C@@H](C)C(=O)N1CCC[C@H]1C(=O)N1CCC[C@H]1C(=O)N1CCC[C@H]1C(=O)N[C@@H](CO)C(=O)N[C@@H](CCCCNC(=O)COCCOCCNC(=O)COCCOCCNC(=O)CC[C@H](NC(=O)CCCCCCCCCCCCC(=O)O)C(=O)O)C(N)=O)[C@@H](C)CC)[C@@H](C)CC [Example 75] | – | – | – | – | – | – | – | – | 2.18 | 87.8 ± 3.33 | 92.3 ± 0.78 | 0.0182 | 41.3 | 0.411 | > 9950 | > 9950 | 97 ± 8.3
CC[C@H](C)[C@H](NC(=O)[C@H](CC(C)C)NC(=O)[C@](C)(Cc1ccc(O)cc1)NC(=O)[C@@H](CCC(=O)O)NC(=O)[C@@H](NC(=O)[C@H](Cc1ccccc1)NC(=O)[C@H](CCCCNC(=O)COCCOCCNC(=O)CC[C@H](NC(=O)CCCCCCCCCCCCC(=O)O)C(=O)O)NC(=O)C(C)(C)NC(=O)[C@H](CCC(N)=O)NC(=O)[C@H](C)NC(=O)[C@H](CCCCNC(=O)COCCOCCNC(=O)CC[C@H](NC(=O)CCCCCCCCCCCCC(=O)O)C(=O)O)NC(=O)[C@H](CCCN)NC(=O)[C@H](CC(=O)O)NC(=O)[C@H](CC(C)C)NC(=O)[C@](C)(CC(C)C)NC(=O)[C@@H](NC(=O)[C@H](CO)NC(=O)[C@H](Cc1ccncc1)NC(=O)[C@H](CC(=O)O)NC(=O)[C@H](CO)NC(=O)[C@@H](NC(=O)[C@](C)(Cc1ccccc1F)NC(=O)[C@@H](NC(=O)CNC(=O)[C@H](CCC(=O)O)NC(=O)C(C)(C)NC(=O)[C@@H](N)Cc1ccc(O)cc1)[C@@H](C)O)[C@@H](C)O)[C@@H](C)CC)[C@@H](C)CC)C(=O)N[C@@H](CCC(=O)O)C(=O)NCC(=O)NCC(=O)N1CCC[C@H]1C(=O)N[C@@H](CO)C(=O)N[C@@H](CO)C(=O)NCC(=O)N[C@@H](C)C(=O)N1CCC[C@H]1C(=O)N1CCC[C@H]1C(=O)N1CCC[C@H]1C(=O)N[C@@H](CO)C(N)=O [Example 76] | – | – | – | – | – | – | – | – | 1.4 | 89.9 ± 2.11 | – | 0.0205 | 28.9 | 0.527 | > 9950 | > 9950 | –
